Like-named read-outs stand apart in the source and are kept apart here.
Tests used:
[1] = molecular target: T1, cholecystokynin receptor (CCK-A) (Cavia porcellus, UniProt Q63931); test: Anti-CCK-A activity, guinea pig gall bladder stimulated in vitro by CCK-8; conditions: selectivity CCK-B vs CCK-A
T1 construct: The experimental model used was the guinea pig gall bladder stimulated in vitro by CCK-8; from tissue; host or cells: guinea pig gall bladder in vitro
T1 sequence (Q63931 1-430): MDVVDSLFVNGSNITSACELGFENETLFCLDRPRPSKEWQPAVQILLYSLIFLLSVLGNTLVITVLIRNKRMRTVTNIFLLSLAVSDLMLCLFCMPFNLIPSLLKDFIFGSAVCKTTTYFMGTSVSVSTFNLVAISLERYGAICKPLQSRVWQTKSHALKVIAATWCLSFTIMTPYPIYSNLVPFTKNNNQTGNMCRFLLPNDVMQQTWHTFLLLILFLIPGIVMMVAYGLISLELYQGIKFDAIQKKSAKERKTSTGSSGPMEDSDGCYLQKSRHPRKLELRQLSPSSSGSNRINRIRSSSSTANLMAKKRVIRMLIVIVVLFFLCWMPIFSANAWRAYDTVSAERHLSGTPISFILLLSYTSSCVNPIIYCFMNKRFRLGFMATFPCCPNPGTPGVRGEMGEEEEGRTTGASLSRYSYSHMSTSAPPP
Excerpt: The experimental model used was the guinea pig gall bladder stimulated in vitro by CCK-8 according to the method described by Makovec et al. [(Arzneim. Forsch/Drug. Res. 35 (7), 1048-1051 (1985)].

rats = test: Anxiolytic activity, elevated plus-maze in rats; format: in vivo, rat
Experimental: It has in fact recently been postulated that the central CCK-B receptor plays an important role in anxiety. This accords with studies also carried out in man which have shown that the central CCK-B mechanisms have an important function in the mediation of panic attacks [Bradwejn, J.et al; J.Psychopharmacology 6 (1992), 345]. In order to confirm this hypothesis, the anxiolytic activities of several of the most powerful CCK-B antagonists of the invention were evaluated by the method of the "elevated plus-maze" in rats, carried out in accordance with Pellow et al. [J. of Neurosc. Meth. 14(1985), 149-167]. A labyrinth was used in which the length of the cross arm was about 45 cm placed at a height from the ground of 70 cm. On this experimental model, a compound having anxiolytic activity produces a percentage increase in the stay time in the open arms and a percentage increase in the number of entries into the open arms.
The results obtained are given in Table 5 below where the activities obtained with different doses of the compound 4 administered intraperitoneally (IP) are given in comparison with a group of animals treated with a physiological saline in the same way.

[2] = molecular target: T2, type-B cholecystokynin (CCK-B) or gastrin receptors (Oryctolagus cuniculus, UniProt P46627); test: Inhibition of the gastrin-induced increase of cytosolic calcium in rabbit gastric mucosa cells; format: cell-based
T2 construct: rabbit gastric mucosa cells were prepared by conventional techniques; endogenous in cells; host or cells: freshly isolated rabbit gastric mucosa cells (collagenase/pronase digestion)
T2 sequence (P46627 1-452): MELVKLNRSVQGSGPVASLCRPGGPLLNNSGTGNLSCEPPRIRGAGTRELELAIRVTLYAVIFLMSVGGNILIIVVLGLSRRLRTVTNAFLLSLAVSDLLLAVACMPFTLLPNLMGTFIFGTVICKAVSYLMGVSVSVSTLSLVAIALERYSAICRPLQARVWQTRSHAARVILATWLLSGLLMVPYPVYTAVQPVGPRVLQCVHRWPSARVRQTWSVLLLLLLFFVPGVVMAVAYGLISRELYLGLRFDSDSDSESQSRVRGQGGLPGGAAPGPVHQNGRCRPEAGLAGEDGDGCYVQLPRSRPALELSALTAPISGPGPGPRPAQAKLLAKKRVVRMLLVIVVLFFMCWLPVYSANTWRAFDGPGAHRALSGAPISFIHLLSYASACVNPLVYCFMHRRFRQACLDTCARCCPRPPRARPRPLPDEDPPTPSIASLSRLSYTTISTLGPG
Excerpt: The parietal cells of the gastric mucosa are responsible for the secretion of HCl. They present specific membrane receptors which may be activated by gastrin and which have been defined as type-B cholecystokynin (CCK-B) or gastrin receptors.
Since it has been observed that the activation of the CCK-B receptors by gastrin results in a raising of the levels of cytosolic calcium ions, a technique has been used for measuring the increase in intracellular calcium induced by gastrin in the presence and absence of the compounds which are the subject of the invention, as an index of the anti-gastrin activity of the compounds themselves.
Suspensions (0.8×10^6 /ml) of rabbit gastric mucosa cells were prepared by conventional techniques with the use of collagenase and pronase as digestive enzymes; the estimation of the [Ca^2+ ]i values, basal or achieved after stimulation of the cell system was carried out in accordance with Grynkiewicz et al [J.Biol.Chem 260 (1985), 3440]. In the control samples the cells were stimulated with […] while in the samples in which the effect of the compounds in question was evaluated, the cells were incubated therewith before stimulation with gastrin. The results are expressed as percentage increases in [Ca^2+ ]i with respect to the control value. The anti-gastrin activity of the compounds was expressed as the IC50 value, that is, the concentration (in μmoles/liter) at which the response to the stimulus induced by the gastrin was reduced by 50%. The results thus obtained for several compounds of the invention are given in Table 3 which also gives an index formed from the ratio between the peripheral anti-gastrin activity just described and the displacement activity derived from the study of binding to the cortical receptors of guinea pigs described above.

central CCK-B receptor = molecular target: T3, central CCK-B receptor (Cavia porcellus, UniProt H0VZC5); test: Inhibition of binding of [3H][N-methyl-N-leucine]CCK-8 to guinea pig cortical membranes (anti-CCK-B in vitro)
T3 construct: The cerebral cortices of male albino guinea pigs were therefore used; from tissue; host or cells: cerebral cortex membranes of male albino guinea pigs
T3 sequence (H0VZC5 1-426): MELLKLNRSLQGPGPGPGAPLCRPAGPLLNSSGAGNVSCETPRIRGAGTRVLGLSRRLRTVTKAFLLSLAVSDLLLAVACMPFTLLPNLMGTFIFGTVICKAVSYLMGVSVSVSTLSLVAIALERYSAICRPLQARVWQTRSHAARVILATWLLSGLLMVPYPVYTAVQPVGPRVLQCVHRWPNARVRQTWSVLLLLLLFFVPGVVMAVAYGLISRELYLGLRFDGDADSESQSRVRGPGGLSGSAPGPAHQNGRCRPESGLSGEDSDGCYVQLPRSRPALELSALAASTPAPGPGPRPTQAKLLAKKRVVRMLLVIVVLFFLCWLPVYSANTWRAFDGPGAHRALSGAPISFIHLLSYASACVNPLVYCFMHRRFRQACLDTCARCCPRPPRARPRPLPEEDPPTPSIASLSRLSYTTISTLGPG
Experimental: The capacity of the compounds which are the subject of the invention to interact with the central CCK-B receptor was evaluated with the use of [3-H][N-methyl-N-leucine]CCK-8. […] The cerebral cortices of male albino guinea pigs were therefore used, the method given above being followed with slight modifications [Makovec et al.; Bioorganic & Med. Chem. Letters 3 (5)(1993), 861-866] so as to give a membrane content corresponding to about 300 mcg of protein/mL.

[3] = test system: acid secretion induced by pentagastrin; test: In vivo gastric anti-secretory activity in the anaesthetised rat, pentagastrin stimulation; conditions: for times more powerful than CR 2194 / times more powerful than cimetidine: ID50 comparison, rat I.V.; for ED50: iv, read-out: Activity (ID50)
Experimental: Gastric secretion was stimulated by pentagastrin and the method of Lai [Gut 5, (1964), 327-341] was used with slight modifications [Makovec et al, J.Med.Chem. 35 (1992), 28-38].
Pentagastrin dissolved in physiological saline was perfused for 120 minutes at a rate of 30 mcg/kg/h. After 60 minutes of perfusion (basal stimulation), the product to be tested was administered intravenously (I.V.) in bolus form, perfusion of the stimulant continuing for the remaining 60 minutes. The activity of the product was evaluated as the percentage reduction in acid secreted after the administration of the product with respect to the basal acidity measured in the first 60 minutes, during which time only pentagastrin was present.
The antagonists tested were administered at different doses in such a way as to enable the ID50 to be calculated, that is, the dose (in mg/kg I.V.) capable of inhibiting the effect of pentagastrin by 50%.

CCK-B receptors = conditions: guinea pigs, Knapp et al. 1990; cited from earlier work
[4] = cells stimulated with 5×10^-8 gastrin, [Ca2+]i
[5] = displacement of [3H][N-methyl-N-leucine]CCK-8, cortical membrane in guinea pigs, read-out: IC50
[6] = I.V. bolus, rat, pentagastrin perfusion

With `Cc1cc(C)c(NC(=O)CC(CC(=O)O)c2cccc3ccccc23)c(C(=O)N2CCC3(CCCC3)CC2)c1` (stereo not drawn) [Compound 4] the “affinity times higher for the gastrin receptor (CCK-B) than for the cholecystokynin receptor (CCK-A)” value [1] was “at least 300 times”, the “% Effect VS controls (time)” value (rats; 0.03 mg/kg I.P., rat) was 10.4% and the “% Effect Vs controls (entries)” value (rats; 0.03 mg/kg I.P., rat) was 19.3%. The “Entries to open arm/total entries (%)” value (rats; 0.03 mg/kg I.P., rat) was 36.4%, the “Time in open arm/total time (%)” value (rats; 0.03 mg/kg I.P., rat) was 21.1% and the “% Effect VS controls (time)” value (rats; 0.3 mg/kg I.P., rat) was 47.9%. The “% Effect Vs controls (entries)” value (rats; 0.3 mg/kg I.P., rat) was 39.3%, the “Entries to open arm/total entries (%)” value (rats; 0.3 mg/kg I.P., rat) was 42.5% and the “Time in open arm/total time (%)” value (rats; 0.3 mg/kg I.P., rat) was 28.2%. For the same molecule, the “percentage stay time in the open arms compared with controls” value (rats; 0.3 mg/kg I.P., significant vs saline controls) was “increases the percentage stay time in the open arms”, the “% Effect VS controls (time)” value (rats; 3.0 mg/kg I.P., rat) was 4.2% and the “% Effect Vs controls (entries)” value (rats; 3.0 mg/kg I.P., rat) was 11.5%. For the same molecule, the “Entries to open arm/total entries (%)” value (rats; 3.0 mg/kg I.P., rat) was 34.0%, the “Time in open arm/total time (%)” value (rats; 3.0 mg/kg I.P., rat) was 19.9% and the “percentage number of entries into the open arm compared with the controls” value (rats; dose range 0.03-3 mg/kg I.P.) was “increases the percentage number of entries into the open arm”. For the same molecule, the anxiolytic effect (rats; plus maze, rat, I.P.) was “displays an anxiolytic effect”, the IC50 [2, 4] was 4 nM and the IC50 ([2]; gastrin-induced [Ca2+]i in rabbit gastric mucosa cells) was 4 nM. The IC50 (central CCK-B receptor; [5]) was 24 nM, the “times less active than pentagastrin” value (central CCK-B receptor; ratio of binding IC50 values) was 8 times and the “times more powerful than CR 2194” value [3] was 10-50 times. For the same molecule, the “times more powerful than cimetidine” value [3] was 2-10 times and the ED50 [3, 6] was 0.2 mg/kg.
For `O=C(O)CC(CC(=O)Nc1c(Cl)cccc1C(=O)N1CCC2(CCCC2)CC1)c1cccc2ccccc12` (stereo not drawn) [Compound 5], the ED50 [3, 6] was 2.6 mg/kg.
In the case of `O=C(O)CC[C@@H](NC(=O)c1cc(Cl)cc(Cl)c1)C(=O)N1CCC2(CCCC2)CC1` [CR 2194, reference compound], the ED50 [3, 6] is reported as 11 mg/kg.
Work on `O=C(O)CC(CC(=O)Nc1cc2ccccc2cc1C(=O)N1CCC2(CC1)OCCO2)c1cccc2ccccc12` (stereo not drawn) [Compound 14] yielded an IC50 (central CCK-B receptor) of 1080 nM and an ED50 ([3]; Rattus norvegicus) of 7.9 mg/kg.
`CSCC[C@H](NC(=O)[C@H](Cc1c[nH]c2ccccc12)NC(=O)CCNC(=O)OC(C)(C)C)C(=O)N[C@@H](CC(=O)O)C(=O)N[C@@H](Cc1ccccc1)C(N)=O` [Pentagastrin, reference compound] gave an IC50 (central CCK-B receptor; [5]) of 3 nM.
`CN/C(=N/CCSCc1nc[nH]c1C)NC#N` [Cimetidine, cimetidine, reference compound] showed an ED50 [3, 6] of 2.5 mg/kg.
In the case of `CN(C(=O)CC(CC(=O)O)c1cccc2ccccc12)c1ccccc1C(=O)N1CCC2(CCCC2)CC1` (stereo not drawn) [Compound 17], the IC50 (central CCK-B receptor; [5]) is reported as > 1000 nM.
For `O=C(O)CC(CC(=O)Nc1cc(Cl)ccc1C(=O)N1CCC2(CCCC2)CC1)c1cccc2ccccc12` (stereo not drawn) [Compound 6], the IC50 [2, 4] was 140 nM and the IC50 (central CCK-B receptor; [5]) was 1240 nM.
For `COc1cc(NC(=O)CC(CC(=O)O)c2cccc3ccccc23)c(C(=O)N2CCC3(CCCC3)CC2)cc1OC` (stereo not drawn) [Compound 10], the IC50 [2, 4] was > 300 nM and the IC50 (central CCK-B receptor; [5]) was 820 nM.
Molecule `O=C(O)CC(CC(=O)Nc1cc2ccccc2cc1C(=O)N1CCC2(CCCCC2)CC1)c1cccc2ccccc12` (stereo not drawn) [Compound 18] has an IC50 [2, 4] of 105 nM and an IC50 (central CCK-B receptor; [5]) of 661 nM.
For `Cc1cc(C)c(NC(=O)CC(CC(=O)O)c2cccc(Cl)c2)c(C(=O)N2CCC3(CCCC3)CC2)c1` (stereo not drawn) [Compound 16], the IC50 [2, 4] was 82 nM and the IC50 (central CCK-B receptor; [5]) was 395 nM.
With `O=C(O)CCC(NC(=O)c1cccc2ccccc12)C(=O)Nc1cccc(C(=O)N2CCC3(CCCC3)CC2)c1` (stereo not drawn) [Compound 12] the IC50 (central CCK-B receptor; [5]) was > 1000 nM and the ED50 [3, 6] was > 10 mg/kg.
In the case of [3-H][N-methyl-N-leucine]CCK-8, the “affinity times higher for the receptors of the cortex (CCK-B) than those of the pancreas (CCK-A)” value (CCK-B receptors) is given as “about 4000 times”.
For `O=C(O)CC(CC(=O)Nc1cc2ccccc2cc1C(=O)N1CCC2(CCCC2)CC1)c1cccc2ccccc12` (racemic) [Compound 13, 3-(DL)-(1-naphthyl)-5-[2'-carbamoyl(8-azaspiro[4.5]dec-8-yl)]-3'-naphthylamino]-5-oxopentanoic acid], the IC50 [2, 4] was 37 nM, the IC50 (central CCK-B receptor; [5]) was 225 nM and the “times more powerful than CR 2194” value [3] was 10-50 times. For the same molecule, the “times more powerful than cimetidine” value [3] was 2-10 times and the ED50 [3, 6] was 1 mg/kg.
`Cc1ccc(NC(=O)CC(CC(=O)O)c2cccc3ccccc23)c(C(=O)N2CCC3(CCCC3)CC2)c1` (stereo not drawn) [Compound 3] showed an IC50 [2, 4] of 30 nM and an IC50 (central CCK-B receptor; [5]) of 188 nM.

Source: patent US5922875A, “Aromatic acid diamides with antigastrin activity, a method for their preparation and their pharmaceutical use” (Rotta Research Laboratorium S.p.A., priority 1995, dated 1999)
